{"source": "patent US20050129762A1", "about": "“Extended release pharmaceutical dosage form” (Wyeth, priority 2003, published 2005)", "origin": "cited, not measured here", "settings": "plural daily dosing regimen, immediate release tablets", "note": "Where a name gives a salt, the structure may show the parent alone."}
{"compound": "COc1ccc(C(CN(C)C)C2(O)CCCCC2)cc1", "note": "(centres unmarked) [venlafaxine hydrochloride, 1-[2-(dimethylamino)-1-(4-methoxyphenyl)ethyl]-cyclohexanol]", "values": [{"measurement": "Vomiting, share of patients", "result": "about seventeen"}, {"measurement": "nausea, share of patients under treatment", "result": "about forty five"}]}
